Test results published in ChEMBL document CHEMBL2331549, “Cyclopropyl- and methyl-containing inhibitors of neuronal nitric oxide synthase” (Bioorg Med Chem, 2013).

Legend:
[1] = Selectivity ratio of Ki for rat nNOS to Ki for mouse iNOS
[2] = Selectivity ratio of Ki for rat nNOS to Ki for bovine eNOS
[3] = molecular target: Nitric oxide synthase 1 (Rattus norvegicus, UniProt P29476); assay: Inhibition of rat nNOS expressed in Escherichia coli using L-arginine as substrate assessed as formation of nitric oxide by hemoglobin capture assay
Chain of Nitric oxide synthase 1 (P29476 whole entry): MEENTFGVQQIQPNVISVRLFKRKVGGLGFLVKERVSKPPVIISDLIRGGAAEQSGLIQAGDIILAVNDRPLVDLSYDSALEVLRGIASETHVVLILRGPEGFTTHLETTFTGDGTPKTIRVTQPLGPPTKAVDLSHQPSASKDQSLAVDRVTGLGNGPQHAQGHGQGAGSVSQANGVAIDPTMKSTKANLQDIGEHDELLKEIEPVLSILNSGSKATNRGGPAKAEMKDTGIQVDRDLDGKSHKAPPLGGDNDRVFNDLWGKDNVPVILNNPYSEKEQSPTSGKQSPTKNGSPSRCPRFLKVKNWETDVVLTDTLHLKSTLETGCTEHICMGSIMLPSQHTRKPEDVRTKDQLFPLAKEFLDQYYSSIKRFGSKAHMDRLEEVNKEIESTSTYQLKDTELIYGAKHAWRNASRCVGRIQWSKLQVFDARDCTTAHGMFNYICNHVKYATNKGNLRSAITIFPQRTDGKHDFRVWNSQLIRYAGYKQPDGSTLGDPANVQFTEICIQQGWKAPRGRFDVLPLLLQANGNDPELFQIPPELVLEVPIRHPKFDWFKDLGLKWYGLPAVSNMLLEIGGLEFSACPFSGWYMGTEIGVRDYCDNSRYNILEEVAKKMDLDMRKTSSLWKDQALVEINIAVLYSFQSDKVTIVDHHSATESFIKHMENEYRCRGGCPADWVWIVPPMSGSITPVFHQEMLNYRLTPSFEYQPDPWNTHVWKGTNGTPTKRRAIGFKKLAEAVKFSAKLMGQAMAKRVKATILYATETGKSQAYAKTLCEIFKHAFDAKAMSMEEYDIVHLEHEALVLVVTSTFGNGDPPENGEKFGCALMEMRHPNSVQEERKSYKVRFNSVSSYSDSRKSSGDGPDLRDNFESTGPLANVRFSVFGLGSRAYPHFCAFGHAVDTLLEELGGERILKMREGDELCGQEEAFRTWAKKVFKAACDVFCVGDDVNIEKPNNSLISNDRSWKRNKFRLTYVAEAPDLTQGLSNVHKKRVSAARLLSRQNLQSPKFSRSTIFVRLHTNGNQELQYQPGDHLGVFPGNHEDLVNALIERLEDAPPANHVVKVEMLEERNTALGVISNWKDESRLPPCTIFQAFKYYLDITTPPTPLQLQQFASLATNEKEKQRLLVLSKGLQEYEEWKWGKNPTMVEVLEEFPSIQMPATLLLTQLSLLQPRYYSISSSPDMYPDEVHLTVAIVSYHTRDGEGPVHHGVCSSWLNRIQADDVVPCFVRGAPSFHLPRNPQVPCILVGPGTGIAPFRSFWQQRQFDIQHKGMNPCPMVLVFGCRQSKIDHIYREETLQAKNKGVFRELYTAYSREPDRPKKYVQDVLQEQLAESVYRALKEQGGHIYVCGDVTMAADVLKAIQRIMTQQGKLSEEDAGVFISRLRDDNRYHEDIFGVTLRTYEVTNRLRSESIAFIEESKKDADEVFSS

[4] = molecular target: T1, Nitric oxide synthase 3 (Bos taurus, UniProt P29473); assay: Inhibition of bovine eNOS expressed in Escherichia coli using L-arginine as substrate assessed as formation of nitric oxide by hemoglobin capture assay
T1 sequence (P29473 whole entry): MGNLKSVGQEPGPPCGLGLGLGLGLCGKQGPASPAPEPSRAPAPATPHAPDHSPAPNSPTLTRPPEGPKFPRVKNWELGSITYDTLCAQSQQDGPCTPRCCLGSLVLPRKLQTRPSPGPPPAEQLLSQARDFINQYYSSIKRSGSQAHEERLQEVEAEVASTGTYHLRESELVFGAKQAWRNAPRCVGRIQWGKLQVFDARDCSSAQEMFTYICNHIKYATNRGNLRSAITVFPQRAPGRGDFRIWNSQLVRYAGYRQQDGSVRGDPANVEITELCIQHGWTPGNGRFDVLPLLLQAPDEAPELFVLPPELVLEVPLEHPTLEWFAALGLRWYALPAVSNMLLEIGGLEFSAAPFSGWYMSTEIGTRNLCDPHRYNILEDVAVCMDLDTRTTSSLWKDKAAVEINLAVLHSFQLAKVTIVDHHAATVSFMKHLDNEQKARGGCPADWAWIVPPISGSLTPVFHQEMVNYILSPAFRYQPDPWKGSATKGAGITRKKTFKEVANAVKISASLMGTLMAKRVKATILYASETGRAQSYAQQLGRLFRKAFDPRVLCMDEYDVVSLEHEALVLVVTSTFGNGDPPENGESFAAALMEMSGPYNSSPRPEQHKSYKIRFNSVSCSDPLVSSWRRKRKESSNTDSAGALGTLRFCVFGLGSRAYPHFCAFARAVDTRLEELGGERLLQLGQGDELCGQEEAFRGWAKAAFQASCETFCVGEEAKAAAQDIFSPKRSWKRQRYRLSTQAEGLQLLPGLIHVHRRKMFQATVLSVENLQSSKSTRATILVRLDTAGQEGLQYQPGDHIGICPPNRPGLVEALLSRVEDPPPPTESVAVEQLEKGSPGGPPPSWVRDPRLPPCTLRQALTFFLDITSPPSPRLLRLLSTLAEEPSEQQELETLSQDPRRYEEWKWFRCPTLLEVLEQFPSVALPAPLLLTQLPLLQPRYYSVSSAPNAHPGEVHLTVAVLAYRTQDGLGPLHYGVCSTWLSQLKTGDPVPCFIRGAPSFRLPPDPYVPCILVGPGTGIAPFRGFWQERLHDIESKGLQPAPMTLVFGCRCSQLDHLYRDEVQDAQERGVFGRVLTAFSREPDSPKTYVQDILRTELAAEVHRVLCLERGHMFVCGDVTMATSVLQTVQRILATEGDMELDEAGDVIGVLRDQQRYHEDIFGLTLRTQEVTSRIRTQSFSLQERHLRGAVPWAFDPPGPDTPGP

[5] = molecular target: T2, Nitric oxide synthase, inducible (Mus musculus, UniProt P29477); assay: Inhibition of mouse iNOS expressed in Escherichia coli using L-arginine as substrate assessed as formation of nitric oxide by hemoglobin capture assay
T2 sequence (P29477 whole entry): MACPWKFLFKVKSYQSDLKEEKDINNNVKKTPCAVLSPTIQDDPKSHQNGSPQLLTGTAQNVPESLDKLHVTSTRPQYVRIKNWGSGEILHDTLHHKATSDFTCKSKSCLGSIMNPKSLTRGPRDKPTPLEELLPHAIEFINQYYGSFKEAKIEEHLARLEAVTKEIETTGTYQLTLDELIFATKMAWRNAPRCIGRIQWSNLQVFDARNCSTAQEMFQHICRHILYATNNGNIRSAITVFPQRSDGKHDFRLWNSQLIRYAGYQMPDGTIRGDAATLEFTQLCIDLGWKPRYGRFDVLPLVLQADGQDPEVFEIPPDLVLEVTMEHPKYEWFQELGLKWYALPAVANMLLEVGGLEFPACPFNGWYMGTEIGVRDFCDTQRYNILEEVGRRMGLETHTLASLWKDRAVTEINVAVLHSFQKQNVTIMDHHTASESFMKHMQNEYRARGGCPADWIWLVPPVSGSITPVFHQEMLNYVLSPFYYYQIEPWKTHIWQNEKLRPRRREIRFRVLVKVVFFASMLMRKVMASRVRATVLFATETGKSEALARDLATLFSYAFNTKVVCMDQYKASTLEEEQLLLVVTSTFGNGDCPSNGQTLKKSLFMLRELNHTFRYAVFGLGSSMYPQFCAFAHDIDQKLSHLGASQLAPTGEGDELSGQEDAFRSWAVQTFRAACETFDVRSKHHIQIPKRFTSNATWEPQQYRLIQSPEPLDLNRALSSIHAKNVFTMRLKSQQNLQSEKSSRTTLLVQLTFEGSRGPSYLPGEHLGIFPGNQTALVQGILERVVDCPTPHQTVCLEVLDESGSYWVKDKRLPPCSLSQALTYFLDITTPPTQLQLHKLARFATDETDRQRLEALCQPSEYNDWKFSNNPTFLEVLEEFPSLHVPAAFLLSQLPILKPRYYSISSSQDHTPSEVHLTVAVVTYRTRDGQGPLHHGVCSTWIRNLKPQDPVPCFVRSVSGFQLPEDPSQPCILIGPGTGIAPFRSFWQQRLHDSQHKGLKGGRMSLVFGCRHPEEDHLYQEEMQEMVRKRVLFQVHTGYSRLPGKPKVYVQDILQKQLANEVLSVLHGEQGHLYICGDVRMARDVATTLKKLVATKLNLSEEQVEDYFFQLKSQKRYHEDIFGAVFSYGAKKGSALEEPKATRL

| Structure (SMILES) | Ratio Ki [1] | Ratio Ki [2] | Ki [3] | Ki [4] | Ki [5] |
| --- | --- | --- | --- | --- | --- |
| Cc1cc(N)nc(C[C@@H]2CNC[C@@H]2OCCNC(C)Cc2cccc(F)c2)c1 (mixture of isomers) | 12 | 370 |  |  |  |
| Cc1cc(N)nc(C[C@@H]2CNC[C@@H]2OCCN[C@H](C)Cc2cccc(F)c2)c1 | 110 | 570 | 0.07 µM | 40 µM | 7.6 µM |
| Cc1cc(N)nc(C[C@@H]2CNC[C@@H]2OCCNC2CC2c2cccc(F)c2)c1 (mixture of isomers) | 94 | 300 | 0.17 µM | 51 µM | 16 µM |
| Cc1cc(N)nc(C[C@@H]2CNC[C@@H]2OCCNC2CC2c2cccc(Cl)c2)c1 (mixture of isomers) | 12 | 370 |  |  |  |
